# Experimental data reported in US7407934B2, “Methods for regulating postprandial blood glucose” (Amylin Pharmaceuticals, Inc., priority 1993, dated 2008).
# Positions of bridges follow the written chain, without caps; N, C: chain ends. Residues, ends and D or L forms follow the SMILES beside them.
# Legend:
# [1] = system: insulin-stimulated glycogen synthesis in soleus muscle; experiment: Soleus muscle assay (inhibition of insulin-stimulated glycogen synthesis); assay type: cell-based, rat
# Procedure: Concentrations of peptide dissolved in carrier-free buffers are determined by quantitative amino acid analysis, as described therein. The ability of compounds to act as agonists in this assay is determined by measuring EC50 values. […] Similar results were obtained with other agonist compounds listed above.
# [2] = rats, rabbits, humans with Paget's disease; cited from earlier work
# [3] = Oral glucose tolerance test in dogs during amylin infusion (Example 1); assay type: in vivo, dog
# Procedure: Mongrel dogs (9 males, 12-17 kg wt. range) were used for this study. All animals were fasted overnight prior to each study. Each animal served as its own control for all protocols. Animals were equilibrated for 30-60 minutes prior to the start of each protocol.
# 25% glucose (1 gm/kg) was administered by mouth at t=0 minutes. […] Samples for insulin, glucose and lactate were obtained at 15 minutes intervals from t=−45 to t=180 minutes.
# [4] = Plasma amylin concentration after subcutaneous rat amylin (immuno-enzymometric assay); assay type: in vivo; details: sc, 1 μg, Peak plasma amylin concentration, 1 μg s.c., 20 min
# Procedure: The plasma from 250 μL samples collected at 10 min intervals was separated and frozen at −20° C. for analysis by a 2-site immuno-enzymometric assay developed in-house.
# To perform the immunoassay, black microtiter plates (Dynatech, Chantilly, Va.) were coated with the antibody F024-4.4 [Phelps JL, Blase E, Koda JE, unpublished] by overnight incubation at 4° C. with 20 μg antibody per mL in 50 mM carbonate at pH 9.6. Plates were washed with 0.05 M Tris/0.15 M sodium chloride/0.02% sodium azide/0.1% Tween 20 (TBS/Tween), and blocked with 1.0% nonfat dry milk powder in the same carbonate buffer for one hour at room temperature. Samples were thawed on ice, and diluted in 4% BSA/200 mg/dl bovine cholesterol supertrate (Miles Pentex reagents, Miles Laboratories, Kankakee, Ill.) if necessary. Samples or standards were added to the coated and blocked plates and incubated for one hours at room temperature. After washing, the F025-27 detection antibody conjugated to alkaline phosphatase was added. […] Bound enzyme was detected by incubation of the plates with the fluorescent substrate 4-methylumbelliferyl phosphate at 50 ug/ml in 1M diethanolamine/0.5 mM MgCl, pH 9.8 for 40 minutes at room temperature. The fluorescent signal was measured with a Dynatech Microfluor plate reader, and data analyzed on Multicalc software (Wallac, Gaithersburg, Md.). […]
# gastric emptying = experiment: Gastric emptying of Phenol Red methylcellulose gel after gavage (Example 5); assay type: in vivo, rat; details: for ED50 for suppression of gastric emptying: diabetic BB rats fasted 6 hours; for ED50 for change in gastric emptying: normal HSD rats fasted 20 hours
# Procedure: When BB rats were confirmed as being diabetic by glycosuria on at least 2 days, they were treated with daily s.c. injections of ultralente recombinant human insulin (Humulin-U, Eli Lilly, Indianapolis). Insulin therapy was aimed at maintaining glucose but minimizing ketones in the urine, in order to avoid hypoglycemic deaths. In fact, glycosuria was present in 88% of measurements and ketonuria in 52%. The average duration of diabetes was 53±5 days, and daily insulin requirements were 4.7±0.3 units. All animals were housed at […] in a 12:12 hour light:dark cycle (experiments being performed during the light cycle) and were fed and watered ad libitum (Diet LM-485, Teklad, Madison, Wis.).
# The determination of gastric emptying by the method described below has usually been performed after a fast of ˜20 hours to ensure that the stomach contained no chyme that would interfere with spectrophotomertric absorbance measurements. However, diabetic rats treated with Ultralente insulin could not be fasted for 20 hours. […] Such animals were therefore fasted for only 6 hours before measurement of gastric emptying. Non-diabetic rates were deprived of food for either 6 or 20 hours prior to experimentation. We have note that even non-diabetic BB rats have elevated glycated hemoglobin concentrations, possibly indicating subclinical insulitis. Both non-diabetic Harlan Sprague Dawley rats and non-diabetic BB rats animals were therefor use in comparisons with diabetic rats. Thus there were 5 treatment groups:
# Twenty minutes after gavage, rats were anesthetized using 5% halothane, the stomach exposed and clamped at the pyloric and lower esophageal spincters using artery forceps, removed and opened into an alkaline solution which was made up to a fixed volume. Stomach content was derived from the intensity of the phenol red in the alkaline solution, measured by absorbance at a wavelength of 560 nm. In most experiments, the stomach was clear. In other experiments, particulate gastric contents were centrifuged to clear the solution for absorbance measurements. Where the diluted gastric contents remained turbid, the spectroscopic absorbance due to Phenol Red was derived as the difference between that present in alkaline vs acidified diluent. In separate experiments on 7 rats, the stomach and small intestine were both excised and opened into an alkaline solution. The quantity of phenol red that could be recovered from the upper gastrointestinal tract within 20 minutes of gavage was 89±4%. To account for a maximal dye recovery of less than 100%, stomach contents remaining after 20 min were expressed as a fraction of the gastric contents recovered from control rats sacrificed immediately after gavage in the same experiment.
# Pairwise comparisons were performed using one-way analysis of variance and the Student-Newman-Keuls multiple comparisons test (Instat v2.0, GraphPad Software, San Diego) using P<0.05 as the level of significance.
# plasma renin activity = details: intact rats, given subcutaneously
# Excerpt: This is important because lowered blood pressure is a strong stimulus to renin release.
# [5] = system: glucose absorption from the small intestine; experiment: Glucose absorption from duodenum / perfused small bowel in anesthetized rats; assay type: in vivo, rat
# Excerpt: Because the studies involved anesthetized rather than conscious rats, they are not considered in analyzing gastric motility, e.g., rate of emptying of stomach contents into the duodenum. However, the studies indicate that absorption of glucose from the duodenum into the blood was not delayed by amylin. […] In anesthetized rats, a segment of small bowel, still connected to the animal via its blood supply, was exteriorized and cannulae inserted so that the small bowel could be perfused with glucosed solutions of controlled composition. The animals were cannulated also via an artery (for blood sampling) and via a vein (for infusion or amylin, insulin and glucose). The lumen was perfused with a tritium-labelled glucose solution. The passage of glucose from the lumen of the gut into the rat was measured by the appearance of the tritium label in the plasma. The supposition that such appearance of tritium in the plasma was indeed measuring glucose uptake from the gut was tested by administration of the glucose transport blocker, phloridzin. […] To ensure that the glucose gradient between the gut lumen and plasma remained constant, during amylin infusions, plasma glucose was “clamped” by an infusion of glucose that was varied in response to changes in plasma glucose.
# [6] = cited from earlier work
Compound,EC50 [1],Lowering of plasma calcium [2],"Plasma glucose after oral glucose load ([3]; amylin infusion 50, 100 and 300 pmol/kg/min, glucose 1 gm/kg by mouth)",Effects on plasma lactate ([3]; oral glucose load),Cmax [4],ED50 of inhibition of gastric emptying (gastric emptying; both normal and diabetic rats (summary)),ED50 for suppression of gastric emptying (gastric emptying; s.c.),"ED50 for suppression of gastric emptying (gastric emptying; s.c., ±0.18 log units)","Dye recoverable from stomach 20 min after gavage (gastric emptying; diabetic rats, 10 μg s.c. (P=0.14))",Dose restoring gastric emptying in a diabetic rat to the rate of normal rats not administered amylin (gastric emptying; estimated from fitted curves of FIG. 14),Plasma concentrations 50% effective in inhibiting gastric emptying (gastric emptying; inferred from plasma profile after 1 μg s.c.),ED50 for change in gastric emptying (gastric emptying; s.c.),"ED50 for change in gastric emptying (gastric emptying; s.c. 5 min before gavage, ±0.19 log units)","Dye recoverable from stomach 20 min after gavage (gastric emptying; normal HSD rats, 1 μg s.c. (P=0.22))","Effect on gastric emptying (in words) (gastric emptying; s.c. 5 min before gavage, 0.01-100 μg)",Plasma renin activity (plasma renin activity),"Absorption of glucose from the duodenum into the blood ([5]; amylin infusion 0.35 nm/kg/min, glucose 1 g/kg)",Rate of transit of labelled glucose from small bowel lumen into plasma ([5]; perfused exteriorized small bowel segment),Plasma glucose after injection ([6]; prolonged increase from about 6),"Plasma lactate after injection ([6]; rise from about 0.5, i.v. and s.c.)"
"CC[C@H](C)[C@H](NC(=O)[C@H](C)NC(=O)CNC(=O)[C@H](Cc1ccccc1)NC(=O)[C@H](CC(N)=O)NC(=O)[C@H](CC(N)=O)NC(=O)[C@H](CO)NC(=O)[C@H](CO)NC(=O)[C@H](Cc1c[nH]cn1)NC(=O)[C@@H](NC(=O)[C@H](CC(C)C)NC(=O)[C@H](Cc1ccccc1)NC(=O)[C@H](CC(N)=O)NC(=O)[C@H](C)NC(=O)[C@H](CC(C)C)NC(=O)[C@H](CCCNC(=N)N)NC(=O)[C@H](CCC(N)=O)NC(=O)[C@@H](NC(=O)[C@H](C)NC(=O)[C@@H]1CCCCNC(=O)C[C@H](NC(=O)[C@@H](N)CCCCN)C(=O)N[C@@H](CC(N)=O)C(=O)N[C@@H]([C@@H](C)O)C(=O)N[C@@H](C)C(=O)N[C@@H]([C@@H](C)O)C(=O)N1)[C@@H](C)O)C(C)C)C(=O)N[C@@H](CC(C)C)C(=O)N[C@@H](CO)C(=O)N[C@@H](CO)C(=O)N[C@H](C(=O)N[C@@H](CC(N)=O)C(=O)N[C@H](C(=O)NCC(=O)N[C@@H](CO)C(=O)N[C@@H](CC(N)=O)C(=O)N[C@H](C(=O)N[C@@H](Cc1ccc(O)cc1)C(N)=O)[C@@H](C)O)C(C)C)[C@@H](C)O [^2,7Cyclo-[^2Asp, ^7Lys]-h-Amylin, ^2,7Cyclo-[^2Asp,^7Lys]-h-Amylin] (H-KDNTATKATQRLANFLVHSSNNFGAILSSTNVGSNTY-NH2; lactam 2-7; N-terminus and C-terminus assumed)",6.62 nM,,,,,,,,,,,,,,,,,,,
CC(C)C[C@H](NC(=O)[C@H](CC(N)=O)NC(=O)[C@H](CC(N)=O)NC(=O)[C@H](CO)NC(=O)[C@H](CO)NC(=O)[C@H](CCCNC(=N)N)NC(=O)[C@@H](NC(=O)[C@H](CC(C)C)NC(=O)[C@H](Cc1ccccc1)NC(=O)[C@H](CC(N)=O)NC(=O)[C@H](C)NC(=O)[C@H](CC(C)C)NC(=O)[C@H](CCCNC(=N)N)NC(=O)[C@H](CCC(N)=O)NC(=O)[C@@H](NC(=O)[C@H](C)NC(=O)[C@@H]1CSSC[C@H](NC(=O)[C@@H](N)CCCCN)C(=O)N[C@@H](CC(N)=O)C(=O)N[C@@H]([C@@H](C)O)C(=O)N[C@@H](C)C(=O)N[C@@H]([C@@H](C)O)C(=O)N1)[C@@H](C)O)C(C)C)C(=O)NCC(=O)N1CCC[C@H]1C(=O)N[C@H](C(=O)N[C@@H](CC(C)C)C(=O)N1CCC[C@H]1C(=O)N1CCC[C@H]1C(=O)N[C@H](C(=O)N[C@@H](CC(N)=O)C(=O)N[C@H](C(=O)NCC(=O)N[C@@H](CO)C(=O)N[C@@H](CC(N)=O)C(=O)N[C@H](C(=O)N[C@@H](Cc1ccc(O)cc1)C(N)=O)[C@@H](C)O)C(C)C)[C@@H](C)O)C(C)C [amylin],,up to 20%,reduced both the rate of rise in plasma glucose as well as the peak plasma glucose,unremarkable,0.076 nM,~1 µg,2.3 nmol/gk,2.2 µg,the same as that recoverable immediately after gavage,~2 µg,less than 74 pM,0.60 nmole amylin/kg body weight,0.43 µg,the same as that recoverable immediately after gavage,dose dependent suppression of gastric emptying,markedly increases,not delayed,no effect,~11 mM,~1.5 mM
